This assay has as its target T1, CAMKII gamma (Homo sapiens, UniProt Q13555).
T1 construct: purchased Promega V3531
Description: CAMKII gamma kinase activity, ADP Glo (Promega). Conditions: 10 uM ATP. In kind it is biochemical. On the procedure:
An enzymatic study was conducted to evaluate the inhibition of CAMKII gamma by ES-3000 (Tetrandrine). CAMKII gamma kinase activity was measured using […] purchased from Promega following the Promega protocol. CAMKII enzyme system purchased from Promega (V3531). ADP Glo was used for detection. Assay optimized for linearity of protein and time. Conditions for inhibitor screening 25 ng CAMKII, 20 min. incubations, inhibitor or DMSO (5%) at RT in 20 uL total volume. Inhibitor, ATP (10 or 50 uM), substrates and buffer added to tubes and reactions started with enzyme. […] Reactions terminated at 20 min. by adding ADP Glo reaction following manufactures instructions. All reactions were done in duplicate. Calculations of percent (%) inhibition determined by dividing the mean activity at each condition by the mean of the DMSO control times 100.
In general terms: ADP-Glo first removes unused ATP, then detects ADP through luciferase.

The structures appear in SMILES notation.

T1 sequence (Q13555 whole entry): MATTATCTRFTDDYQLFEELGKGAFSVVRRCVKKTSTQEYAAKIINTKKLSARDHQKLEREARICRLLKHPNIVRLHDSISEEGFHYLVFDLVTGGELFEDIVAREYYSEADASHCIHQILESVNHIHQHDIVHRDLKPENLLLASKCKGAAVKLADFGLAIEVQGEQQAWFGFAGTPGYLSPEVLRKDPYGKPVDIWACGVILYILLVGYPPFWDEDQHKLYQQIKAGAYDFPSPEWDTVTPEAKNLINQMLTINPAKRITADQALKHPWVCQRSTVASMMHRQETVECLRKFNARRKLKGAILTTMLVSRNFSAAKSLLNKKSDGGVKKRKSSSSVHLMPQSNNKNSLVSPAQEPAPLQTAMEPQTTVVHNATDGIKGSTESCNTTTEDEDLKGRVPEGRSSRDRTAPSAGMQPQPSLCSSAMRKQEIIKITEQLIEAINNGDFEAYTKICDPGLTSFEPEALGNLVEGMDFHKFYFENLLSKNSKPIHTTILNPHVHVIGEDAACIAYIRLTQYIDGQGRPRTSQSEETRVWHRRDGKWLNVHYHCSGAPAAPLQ

For `COc1cc2c3cc1Oc1c(OC)c(OC)cc4c1[C@@H](Cc1ccc(O)c(c1)Oc1ccc(cc1)C[C@@H]3N(C)CC2)N(C)CC4` [berbamine, reference compound], for the setting “30 uM”, the “% inhibition” value was found to be 37%; the inhibition at 30 µM was determined as 36.7%; the “kinase activity, % of DMSO control” value worked out at 63%. Moreover, where the note is “100 uM”, the “% inhibition” value is 47%; testing at 100 µM gave an inhibition of 47.1%; the “kinase activity, % of DMSO control” value is given as 53%. Besides, where the note is “250 uM”, the “% inhibition” value is on record as 46%; the inhibition at 250 µM came out at 46.3%; the “kinase activity, % of DMSO control” value worked out at 54%.

The term % inhibition denotes the percentage by which the read-out fell short of the control. Broadly, the inhibition is how much of the control response was suppressed. Low values mean a weak effect, high ones a strong effect.

The record behind these values is patent US20240307372A1, “COMPOSITIONS AND METHODS TO IMPROVE BENEFIT OF SUBOPTIMALLY ADMINISTERED THERAPEUCTICS FOR THE TREATMENT OF BENIGN AND NEOPLASTIC DISEASES, INFECTIONS, INFLAMMATORY, METABOLIC AND IMMUNOLOGIAL DISEASES” (priority 2023, published 2024).
